“And” between values parts separate entries of the source, which are not always exact repeats. Equal values may be shown once.
Test system: TERT-RPE1
Experiment: Here: values are normalized to the negative (DMSO; defined as 0% autophagy induction) and positive (250nM Torin1; mTOR inhibitor; defined as maximal inducer of autophagy = 100%) control compounds and represented as % of autophagy induction. […] The impact of autophagy induction on cells is complex and depends on the affected target. As such, the magnitude of a phenotype may not be equally mirrored in the %-value of autophagy induction and vice versa. The dynamics of the induction may indicate the mode of activation: e.g. activation via phosphorylation or a signaling cascade may occur fast, while activation via transcription factors may take considerably longer. […] Of note, treatment concentrations may be sub-optimal for specific compounds, leading to false negative annotations.
Format: functional, Homo sapiens
Details: Culturing Media DMEM/F12 (1:1), 1 % Penicillin/Streptomycin, 10% Fetal bovin serum Add-On: No, Screening Media Control DMEM/F12 (1:1), Screening Media Samples DMEM/F12 (1:1)
[1] = Compound Concentration 1 uM, Timepoint 12 hours
[2] = Compound Concentration 1 uM, Timepoint 24 hours
[3] = Compound Concentration 1 uM, Timepoint 36 hours
[4] = Compound Concentration 1 uM, Timepoint 60 hours

SMILES	autophagy induction [1]	autophagy induction [2]	autophagy induction [3]	autophagy induction [4]	further results
CC(C=CC1=C(C)CCCC1(C)C)=CC=CC(C)=CC(=O)O	-29.8215%	-16.487%	10.9979%	39.1731%	
COc1ccc(-c2ccc3cc(C(=O)O)ccc3c2)cc1C12CC3CC(CC(C3)C1)C2	-16.1508%	-22.2133%	-14.1287%	30.465%	
Cc1cccc(CN2CCN(C(c3ccccc3)c3ccc(Cl)cc3)CC2)c1.Cl.Cl (stereo not drawn)	89.2215%	-0.434%	13.2807%	-24.9822%	
CCCc1c(OCCCOc2ccc(OCC(=O)O)cc2)ccc(C(C)=O)c1O	-6.598%	-4.053%	-2.5514%	-8.413%	
Cc1oc2ccccc2c1Cc1cc(I)c(OCC(=O)O)c(I)c1					autophagy induction (Compound Concentration 3 uM, Timepoint 12 hours): -1.169%; autophagy induction (Compound Concentration 3 uM, Timepoint 24 hours): 9.702%; autophagy induction (Compound Concentration 3 uM, Timepoint 36 hours): 19.9109%; autophagy induction (Compound Concentration 3 uM, Timepoint 60 hours): -4.505%
CCOC(=O)Nc1ccc2c(c1)N(C(=O)CN(CC)CC)c1ccccc1CC2	-0.6682%	2.4649%	6.3561%	1.708%	
CN(CCOc1ccc(C[C@H](Nc2ccccc2C(=O)c2ccccc2)C(=O)O)cc1)c1ccccn1.O	-1.212%	-2.25%	0.5142%	-9.85%	
OC(c1ccc(-c2ccc(CN3CCN(Cc4ccncc4)CC3)cc2)c(F)c1)(C(F)(F)F)C(F)(F)F	-2.122%	-7.771%	-2.839%	2.172%	
COc1cc(O)c(C(CC(=O)N2C[C@H](C)C[C@H](C)C2)c2ccc3c(c2)OCO3)c(OC)c1 (stereo partly drawn)					autophagy induction (Compound Concentration 1 uM, Timepoint 12 hours, 12 h, 1 µM): -12.9989% and -4.38%; autophagy induction (Compound Concentration 1 uM, Timepoint 24 hours, 24 h, 1 µM): -0.5632% and -3.782%; autophagy induction (Compound Concentration 1 uM, Timepoint 36 hours, 36 h, 1 µM): 12.4792% and 2.693%; autophagy induction (Compound Concentration 1 uM, Timepoint 60 hours, 60 h, 1 µM): -12.6071% and -5.875%
O=C(Nc1ccc(C(O)(C(F)(F)F)C(F)(F)F)cc1)c1ccc(C(F)(F)F)cc1	1.9218%	1.011%	4.384%	2.099%	
CC(=O)Nc1nc(C)c(S(=O)(=O)Nc2ccc(C(O)(C(F)(F)F)C(F)(F)F)cc2)s1	4.3226%	10.3847%	21.8693%	-92.7489%	
CC(C)c1onc(-c2c(Cl)cccc2Cl)c1COc1ccc(/C=C/c2cccc(C(=O)O)c2)c(Cl)c1	-17.7139%	-8.477%	8.951%	-22.8602%	
O=S(=O)(Nc1ccc(C(O)(C(F)(F)F)C(F)(F)F)cc1)c1cccs1	37.5142%	-2.586%	11.7189%	-15.4416%	
COc1cccc(Cn2cc(C(=O)Nc3ccc(C)c(S(=O)(=O)N4CCOCC4)c3)c(-c3ccc(C)cc3)n2)c1	-3.785%	-6.106%	-1.342%	-4.917%	
Cc1cc(SCc2sc(-c3ccc(C(F)(F)F)c(F)c3)nc2C)ccc1OCC(=O)O	-0.9501%	-2.27%	3.329%	-6.099%	
Cl.O=C(O)Cc1cccc(OCCCN(Cc2cccc(C(F)(F)F)c2Cl)CC(c2ccccc2)c2ccccc2)c1	-4.945%	-7.042%	-10.7668%	-6.3424%	

SMILES	autophagy induction [1]	autophagy induction [2]	autophagy induction [3]	autophagy induction [4]	further results
CC(C)C(=O)N1CCC(c2cn(C)c3ncc(NC(=O)c4cccc(C#N)c4)c(C(F)(F)F)c23)CC1	-17.3669%	-7.8656%	13.4062%	-15.2604%	
CC(C)c1ccc(CC(=O)N2CCC[C@@H](c3cccc(OC(C)(C)C(=O)O)c3)C2)cc1	2.269%	-2.988%	2.286%	-0.7623%	
COC(=O)C(Cc1ccc(OCCn2c(=O)sc3cc(C(=O)c4ccccc4)ccc32)cc1)C(=O)OC	-14.8184%	-7.449%	12.2337%	-20.3416%	
Clc1ccc(-c2nc3sccn3c2/C=N/OCc2ccc(Cl)c(Cl)c2)cc1	-153.599%	-9.053%	9.503%	-19.9955%	
CCOP(=O)(OCC)C(=Cc1cc(C(C)(C)C)c(O)c(C(C)(C)C)c1)P(=O)(OCC)OCC	-14.535%	-0.01812%	17.6383%	-21.9097%	
CCOC(=O)C1Cc2ccccc2CN1C(=O)c1ccc(SC)s1 (stereo not drawn)	141.578%	-7.836%	8.933%	-16.4137%	
CC1(C)C(=O)C(C)(C)c2cc(C(=O)Nc3ccc(C(=O)O)cc3)ccc21	-15.7037%	-5.578%	15.5375%	-28.4557%	
C[C@H](CCOc1cccc(CC(=O)O)c1)N(Cc1cccc(C(F)(F)F)c1Cl)CC(c1ccccc1)c1ccccc1.Cl	-13.5866%	1.703%	15.8521%	-16.0779%	
CCO[C@H](COc1ccc(C(F)(F)F)cc1)CSc1ccc(OCC(=O)[O-])c(C)c1.[Na+]	0.706%	-0.6859%	2.912%	3.397%	
CN1CCN(c2ccc(/C=C(\C#N)c3ccccc3Br)cc2)CC1.Cl.Cl	-7.74%	-11.503%	-8.5159%	1.827%	
COC(=O)c1sccc1S(=O)(=O)Nc1ccc(Nc2ccccc2)cc1OC	-12.2106%	-1.2%	15.0919%	-15.7117%	
O=C(NCCS(=O)(=O)c1ccc(C(F)(F)F)cn1)c1ccc(Cl)cc1	-3.2973%	-5.225%	0.4695%	10.0166%	
CC1(C)CCC(C)(C)c2cc(C(=O)Nc3ccc(C(=O)O)cc3)ccc21	-16.8061%	-23.3221%	-14.7294%	28.5347%	
CC(=O)Oc1ccc2c(c1)[C@@]1(C)CCC[C@](C)(C(=O)OC(=O)[C@@]3(C)CCC[C@]4(C)c5cc(OC(C)=O)ccc5CC[C@@H]34)[C@@H]1CC2 [ACETYL PODOCARPIC ACID ANHYDRIDE]	-1.145%	-5.055%	-3.143%	-11.9263%	
CCCCc1oc2ccccc2c1C(=O)c1cc(I)c(OCCN(CC)CC)c(I)c1.Cl [AMIODARONE HYDROCHLORIDE]	-399.679%	-0.6341%	14.6432%	-20.4662%	
COc1cc2c(cc1CC=C(C)C)C(=O)C[C@@H](c1ccc(O)cc1)O2 [BAVACHININ A]	-6.984%	-10.3298%	-14.6991%	1.68%	

— ChEMBL document CHEMBL5724696, “Autophagy assay results for EUbOPEN Chemogenomics Library” (2024)
